Test results reported in patent publication US11716992B2, “5A5B6C tricyclic spirolactone derivative, preparation method therefor and use thereof” (NANKAI UNIVERSITY, priority 2017, dated 2023).
“And” between values parts separate entries of the source, which are not always exact repeats. Identical values can stand only once. Like-named read-outs stand apart in the source and are kept apart here.

Experiments:
[1] = test system: Mythimna separate (Walker); assay: Insecticidal activity against Mythimna separate (Walker); format: in vivo; conditions: 100 μg/mL; for pest or weed control at 100 µg/mL: Mythimna, read-out: insecticidal activity, Mythimna separate (Walker)
[2] = test system: Helicoverpa armigera (Hübner); assay: Insecticidal activity against Helicoverpa armigera (Hübner); format: in vivo; conditions: 100 μg/mL; for pest or weed control at 100 µg/mL: Helicoverpa armigera, read-out: insecticidal activity, Helicoverpa armigera (Hübner)
Ostrinia furnacalis = assay: Insecticidal activity against Ostrinia furnacalis; format: in vivo; conditions: 100 μg/mL; for pest or weed control at 100 µg/mL: Ostrinia furnacalis, read-out: insecticidal activity, Ostrinia furnacalis
Caenorhabditis elegans = assay: Insecticidal activity against Caenorhabditis elegans; format: in vivo; conditions: Caenorhabditis elegans, 100 μg/mL; read-out: insecticidal activity, Caenorhabditis elegans
Alternaria solani = assay: Fungicidal activity, fungicide growth rate method, AS; format: cell-based; conditions: 50 μg/mL; for inhibition at 50 µg/mL: Alternaria solani, read-out: fungicidal activity (growth inhibition rate), AS
Botrytis cinerea = assay: Fungicidal activity, fungicide growth rate method, BC; format: cell-based; conditions: 50 μg/mL; for inhibition at 50 µg/mL: Botrytis cinerea, read-out: fungicidal activity (growth inhibition rate), BC
Cercospora arachidicola = assay: Fungicidal activity, fungicide growth rate method, CA; format: cell-based; conditions: 50 μg/mL; for inhibition at 50 µg/mL: Mycosphaerella arachidis, read-out: fungicidal activity (growth inhibition rate), CA
wheat Gibberella zeae = assay: microbe, parasite or virus in culture; format: cell-based; conditions: for inhibition at 50 µg/mL: Fusarium graminearum, read-out: fungicidal activity (growth inhibition rate), GZ, 50 μg/mL
[3] = test system: Phytophthora infestans (Mont.) de Bary; assay: microbe, parasite or virus in culture; format: cell-based; conditions: for inhibition at 50 µg/mL: Phytophthora infestans, read-out: fungicidal activity (growth inhibition rate), PI, 50 μg/mL
Physalospora piricola = assay: Fungicidal activity, fungicide growth rate method, PP; format: cell-based; conditions: 50 μg/mL; for inhibition at 50 µg/mL: read-out: fungicidal activity (growth inhibition rate), PP
Pellicularia sasakii = assay: Fungicidal activity, fungicide growth rate method, PS; format: cell-based; conditions: 50 μg/mL; for inhibition at 50 µg/mL: read-out: fungicidal activity (growth inhibition rate), PS
Rhizoctonia cerealis = assay: Fungicidal activity, fungicide growth rate method, RC; format: cell-based; conditions: 50 μg/mL; for inhibition at 50 µg/mL: Ceratobasidium cereale, read-out: fungicidal activity (growth inhibition rate), RC
Sclerotinia sclerotiorum = assay: Fungicidal activity, fungicide growth rate method, SS; format: cell-based; conditions: 50 μg/mL; for inhibition at 50 µg/mL: Sclerotinia sclerotiorum
[4] = test system: Apis mellifera ligustica Spin; conditions: for Death number after 24 h / Death number after 48 h: per replicate of 10 bees

Compound | pest or weed control at 100 µg/mL [1] | pest or weed control at 100 µg/mL [2] | pest or weed control at 100 µg/mL (Ostrinia furnacalis) | pest or weed control at 100 µg/mL (Caenorhabditis elegans) | inhibition at 50 µg/mL (Alternaria solani) | inhibition at 50 µg/mL (Botrytis cinerea) | inhibition at 50 µg/mL (Cercospora arachidicola) | inhibition at 50 µg/mL (wheat Gibberella zeae) | inhibition at 50 µg/mL [3] | inhibition at 50 µg/mL (Physalospora piricola) | inhibition at 50 µg/mL (Pellicularia sasakii) | inhibition at 50 µg/mL (Rhizoctonia cerealis) | inhibition at 50 µg/mL (Sclerotinia sclerotiorum) | other results
C=CC[C@@H]1C[C@]2(O[Si](C)(C)CC=C)CCO[C@@]23C[C@H](O[Si](C)(C)CC=C)CC[C@H]13 [Zyj07-46] | 20% | 5% | 0% | 10% | 8% | > 50% | 14% | 3% | 21% | 21% | 22% | 0% | > 50% | –
C=CC[C@@H]1C[C@]2(O)CC(=O)O[C@@]23CC=CC[C@H]13 [Zyj06-186] | 0% | 0% | 0% | 15% | 7% | 49% | 46% | 21% | 4% | 11% | 6% | 41% | > 50% | –
C=CC[C@@H]1C[C@]2(O)CC(O)O[C@@]23C[C@H]2O[C@H]2C[C@H]13 (some centres unmarked) [Zyj07-64] | 20% | 10% | 5% | 8% | > 60% | 41% | – | 73% | 17% | – | > 60% | > 70% | 45% | Death rate after 48 h (%) ([4]; dosage 10.0 μg a.i./bee): 15.0%; Death number after 24 h ([4]; dosage 10.0 μg a.i./bee): 0; Death number after 48 h ([4]; dosage 10.0 μg a.i./bee): 1 and 2; Death rate after 48 h (%) ([4]; dosage 15.5 μg a.i./bee): 10.0%; Death number after 24 h ([4]; dosage 15.5 μg a.i./bee): 0 and 1; Death number after 48 h ([4]; dosage 15.5 μg a.i./bee): 0 and 2
C=C(C)C1CC(=O)[C@@]2(O)CC=CC[C@H]12 (some centres unmarked) [Zyj06-166] | 0% | 0% | 0% | 5% | – | 36% | > 50% | 27% | 25% | 38% | 18% | 0% | 17% | Death rate after 48 h (%) ([4]; dosage 9.93 μg a.i./bee): 0%; Death number after 24 h ([4]; dosage 9.93 μg a.i./bee): 0; Death number after 48 h ([4]; dosage 9.93 μg a.i./bee): 0; Death rate after 48 h (%) ([4]; dosage 19.7 μg a.i./bee): 10.0%; Death number after 24 h ([4]; dosage 19.7 μg a.i./bee): 0; Death number after 48 h ([4]; dosage 19.7 μg a.i./bee): 1
CC(C)(C)OO[C@@H]1CC(=O)[C@@]2(O)CC=CC[C@H]12 [Zyj06-92-2] | 20% | 10% | 10% | 20% | > 60% | 30% | – | – | 15% | – | 41% | > 70% | 38% | –
Ryanodine [reference compound] | – | – | – | – | – | – | – | – | – | – | – | – | – | insecticidal activity, Mythimna separate (Walker) [1]: 100%; insecticidal activity, Helicoverpa armigera (Hübner) [2]: 100%; insecticidal activity, Ostrinia furnacalis (Ostrinia furnacalis): 100%; fungicidal activity (growth inhibition rate), AS (Alternaria solani): 25%; fungicidal activity (growth inhibition rate), BC (Botrytis cinerea): 25%; fungicidal activity (growth inhibition rate), CA (Cercospora arachidicola): 10%; fungicidal activity (growth inhibition rate), GZ (wheat Gibberella zeae; 50 μg/mL): 20%; fungicidal activity (growth inhibition rate), PI ([3]; 50 μg/mL): 30%; fungicidal activity (growth inhibition rate), PP (Physalospora piricola): 25%; fungicidal activity (growth inhibition rate), PS (Pellicularia sasakii): 32%; fungicidal activity (growth inhibition rate), RC (Rhizoctonia cerealis): 50%; fungicidal activity (growth inhibition rate), SS (Sclerotinia sclerotiorum): 25%
